Laboratory results reported in publication PMC8815882, “Screening the pandemic response box identified benzimidazole carbamates, Olorofim and ravuconazole as promising drug candidates for the treatment of eumycetoma” (PLoS Neglected Tropical Diseases, 2022).
pIC50: −log10 of the molar value. Values after ≈ are worked out from the molar mass of the structure shown. Where two headings read alike, the source gives them in different places.

How the values were obtained:
[1] = system: M. mycetomatis genome strain MM55; test: CLSI M38-A2 based in vitro susceptibility screening (XTT or resazurin), growth at fixed concentration; assay type: cell-based, Madurella mycetomatis; details: Madurella mycetomatis
[2] = system: M. mycetomatis MM55; test: IC50 determination, 2-fold dilution series 16 to 0.03125 μM; assay type: cell-based, Madurella mycetomatis; details: Madurella mycetomatis
[3] = system: ten different M. mycetomatis isolates; test: MIC / MIC50 determination (XTT) in ten M. mycetomatis isolates; assay type: cell-based, Madurella mycetomatis; details: Madurella mycetomatis
[4] = system: M. mycetomatis isolate MM55; test: M. mycetomatis grain infection model in G. mellonella larvae, survival; assay type: in vivo, Galleria mellonella; parameters: In vivo efficacy, Larvae survival %: concentration or dose not given beside the values
[5] = system: M. mycetomatis; test: Drug static or cidal determination; assay type: cell-based, Madurella mycetomatis
From the text: Supplement pntd.0010159.s001.xlsx, sheet "Pandemic Box Master sheet" | column: Drug static or cidal

- pIC50 ([2]; MM55, Table 2, M. mycetomatis MM55, read-out: IC50): 5.31
- pIC50 ([2]; MM55, mean of replicates, read-out: IC50 mean): 5.31
- IC90 ([2]; MM55, mean of replicates, read-out: IC90 mean): 18.2 µM
- pIC50 ([2]; MM55, replicate 1, read-out: IC50 1): 5.57
- IC90 ([2]; MM55, replicate 1, read-out: IC90 1): 14 µM
- pIC50 ([2]; MM55, replicate 2, read-out: IC50 2): 5.53
- IC90 ([2]; MM55, replicate 2, read-out: IC90 2): 19.2 µM
- pIC50 ([2]; MM55, replicate 3, read-out: IC50 3): 5.05
- IC90 ([2]; MM55, replicate 3, read-out: IC90 3): 21.4 µM
- MIC50 ([3]; median MIC over ten M. mycetomatis isolates, no asterisk, read-out: MIC50): 4 µM (≈ 1.8 µg/mL)
- MIC ([3]; isolate CBS247.48, read-out: MIC CBS247.48): 8 µM (≈ 3.6 µg/mL)
- MIC ([3]; isolate MM14, read-out: MIC MM14): > 16 µM
- MIC ([3]; isolate MM45, read-out: MIC MM45): > 16 µM
- MIC ([3]; isolate MM55, read-out: MIC MM55): 8 µM (≈ 3.6 µg/mL)
- MIC ([3]; isolate P1, read-out: MIC P1): 4 µM (≈ 1.8 µg/mL)
- MIC ([3]; isolate ParijsAl1, read-out: MIC ParijsAl1): 2 µM (≈ 0.899 µg/mL)
- MIC ([3]; isolate Peru72012, read-out: MIC Peru72012): 2 µM (≈ 0.899 µg/mL)
- MIC ([3]; isolate So1, read-out: MIC So1): 4 µM (≈ 1.8 µg/mL)
- MIC ([3]; isolate i1, read-out: MIC i1): 2 µM (≈ 0.899 µg/mL)
- MIC ([3]; isolate i11, read-out: MIC i11): 16 µM (≈ 7.19 µg/mL)
- MIC50 ([3]; over ten M. mycetomatis isolates, read-out: MIC50 mean): 4 µM (≈ 1.8 µg/mL)
Compound: Oc1c(C(Nc2nc3ccccc3s2)c2ccc(OC(F)F)cc2)ccc2cccnc12 (centres unmarked) [MMV019724]
- activity at 25 µM ([1]; mean of replicates, read-out: Percentage survival at 25um, 25 uM mean): 9.22%
- activity at 25 µM ([1]; replicate A, read-out: Percentage survival at 25um, 25 um A): 14.5%
- activity at 25 µM ([1]; replicate B, read-out: Percentage survival at 25um, 25 uM B): 1.51%
- activity at 25 µM ([1]; replicate C, read-out: Percentage survival at 25um, 25 uM C): 11.7%
- activity at 100 µM ([1]; 100 uM, mean of replicates, read-out: Percentage survival at 100um, 100 uM mean): 16.7%
- activity at 100 µM ([1]; 100 uM, replicate 1, read-out: Percentage survival at 100um, 100 uM A (first replicate column)): 15.6%
- Percent fungal survival at 100 µM ([1]; 100 uM, replicate 2, read-out: Percentage survival at 100um, 100 uM A (second replicate column)): 13.5%
- activity at 100 µM ([1]; 100 uM, replicate 3, read-out: Percentage survival at 100um, 100 uM A (third replicate column)): 20.9%
- In vivo efficacy, Larvae survival % ([4]; G. mellonella larvae infected with M. mycetomatis): 13.3%
- In vivo efficacy, Enhanced survival compared to control? ([4]; in vivo): no
- Drug static or cidal [5]: Static
